Results as given in patent US5665704A, “Receptor specific atrial natriuretic peptides” (Genentech, Inc., priority 1995, dated 1997).
Bridge positions count the residues as written; N and C are the ends. Square brackets hold non-standard residues; d marks the D form. Peptide text beside a SMILES is read from it. Cha = N[C@@H](CC1CCCCC1)C(=O)O; Mpa = O=C(O)CCS

Experiments:
hNPR-A = target: T1, hNPR-A (Homo sapiens, UniProt P16066); experiment: Binding affinity for hNPR-A (competitive displacement of I^125 labeled wild-type ANF); conditions: Table I; read-out: Binding Affinity IC50 (pM) hNPR-A
T1 sequence (P16066 33-1061): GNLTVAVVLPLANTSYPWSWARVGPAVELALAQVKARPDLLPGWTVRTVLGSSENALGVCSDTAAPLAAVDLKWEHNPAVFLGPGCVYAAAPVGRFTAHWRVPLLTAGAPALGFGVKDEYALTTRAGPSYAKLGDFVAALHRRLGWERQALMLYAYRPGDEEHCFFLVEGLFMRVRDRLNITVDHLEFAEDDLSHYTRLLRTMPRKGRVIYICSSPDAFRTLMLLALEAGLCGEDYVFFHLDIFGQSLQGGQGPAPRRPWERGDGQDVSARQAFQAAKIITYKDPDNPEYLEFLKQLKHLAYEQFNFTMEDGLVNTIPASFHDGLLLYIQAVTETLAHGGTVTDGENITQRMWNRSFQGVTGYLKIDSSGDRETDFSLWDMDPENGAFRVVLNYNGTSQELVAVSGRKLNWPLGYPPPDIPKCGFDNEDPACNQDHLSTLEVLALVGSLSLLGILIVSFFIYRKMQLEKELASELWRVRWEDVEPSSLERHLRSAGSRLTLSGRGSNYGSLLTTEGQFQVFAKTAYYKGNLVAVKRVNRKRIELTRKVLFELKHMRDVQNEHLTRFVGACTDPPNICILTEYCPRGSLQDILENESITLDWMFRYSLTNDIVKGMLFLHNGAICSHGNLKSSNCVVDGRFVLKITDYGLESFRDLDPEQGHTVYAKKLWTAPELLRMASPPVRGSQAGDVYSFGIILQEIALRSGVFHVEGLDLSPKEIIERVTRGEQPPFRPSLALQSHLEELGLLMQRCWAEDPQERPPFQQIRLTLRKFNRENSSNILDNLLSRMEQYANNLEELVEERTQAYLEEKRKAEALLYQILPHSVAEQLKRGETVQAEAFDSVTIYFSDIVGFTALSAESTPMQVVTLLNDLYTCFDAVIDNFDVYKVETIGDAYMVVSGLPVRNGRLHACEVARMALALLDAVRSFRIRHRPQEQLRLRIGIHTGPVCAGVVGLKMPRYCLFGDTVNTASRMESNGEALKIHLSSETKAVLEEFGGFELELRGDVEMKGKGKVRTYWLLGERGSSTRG

hNPR-C = target: T2, hNPR-C (Homo sapiens, UniProt P17342); experiment: Binding affinity for clearance receptor hNPR-C; conditions: Table I; read-out: Binding Affinity IC50 (pM) hNPR-C
T2 sequence (P17342 27-541): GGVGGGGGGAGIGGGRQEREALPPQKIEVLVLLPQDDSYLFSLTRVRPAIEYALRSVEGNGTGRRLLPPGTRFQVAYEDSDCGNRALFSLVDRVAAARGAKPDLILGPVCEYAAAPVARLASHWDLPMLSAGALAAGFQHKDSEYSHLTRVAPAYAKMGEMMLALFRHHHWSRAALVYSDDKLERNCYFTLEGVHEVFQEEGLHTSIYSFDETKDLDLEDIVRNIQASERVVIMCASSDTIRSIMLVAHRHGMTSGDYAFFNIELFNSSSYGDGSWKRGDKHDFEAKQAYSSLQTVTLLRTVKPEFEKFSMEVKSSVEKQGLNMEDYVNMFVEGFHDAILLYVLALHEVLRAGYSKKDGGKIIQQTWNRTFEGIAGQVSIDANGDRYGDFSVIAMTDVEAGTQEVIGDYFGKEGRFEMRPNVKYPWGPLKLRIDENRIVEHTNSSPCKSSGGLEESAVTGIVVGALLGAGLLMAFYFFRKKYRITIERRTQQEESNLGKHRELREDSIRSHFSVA
Description: For assay systems to measure binding of hANF and the compounds of this invention to hNPR-C see: Schank, D. B., et al., Biochem. Biophys. Res. Comm. 127:433-442 (1985); Scarborough, R. M., J. Biol. Chem. 261:12960-12964 and WO 90/01940.

IC50 (hNPR-A) | IC50 (hNPR-C) | SMILES
1400 pM | 3.86e+06 pM | CC[C@H](C)[C@@H]1NC(=O)[C@H](CCCNC(=N)N)NC(=O)[C@H](CC(=O)O)NC(=O)[C@H]([C@@H](C)CC)NC(=O)[C@H](CO)NC(=O)CNC(=O)[C@@H](C)NC(=O)[C@H](Cc2ccccc2)NC(=O)CCSSC[C@@H](C(=O)N[C@@H](CC(N)=O)C(=O)N[C@@H](CO)C(=O)N[C@@H](Cc2ccccc2)C(=O)N[C@@H](CCCNC(=N)N)C(=O)N[C@@H](Cc2ccc(O)cc2)C(=O)O)NC(=O)CNC(=O)[C@H](CC(C)C)NC(=O)CNC(=O)[C@H](CO)NC(=O)[C@H](CCC(N)=O)NC(=O)[C@H](C)NC(=O)[C@H](CCCNC(=N)N)NC1=O [ANF81] ([Mpa]F[dA]GSIDRIRAQSGLGCNSFRY-OH; disulfide 1-17)
16 pM | 3.44e+06 pM | CC[C@H](C)[C@@H]1NC(=O)[C@H](CCCNC(=N)N)NC(=O)[C@H](CC(=O)O)NC(=O)[C@H]([C@@H](C)CC)NC(=O)[C@H](CO)NC(=O)CNC(=O)[C@H]([C@@H](C)O)NC(=O)[C@H](Cc2ccccc2)N(C)C(=O)[C@@H](NC(=O)[C@H](CO)NC(=O)[C@H](CO)NC(=O)[C@H](CCCNC(=N)N)NC(=O)[C@H](CCCNC(=N)N)NC(=O)[C@H](CC(C)C)NC(=O)[C@@H](N)CO)CSSC[C@@H](C(=O)N[C@@H](CC(N)=O)C(=O)N[C@@H](CO)C(=O)N[C@@H](Cc2ccccc2)C(=O)N[C@@H](CCCNC(=N)N)C(=O)N[C@@H](Cc2ccc(O)cc2)C(=O)O)NC(=O)CNC(=O)[C@H](CC(C)C)NC(=O)CNC(=O)[C@H](CO)NC(=O)[C@H](CCC(N)=O)NC(=O)[C@H](C)NC(=O)[C@H](CCCNC(=N)N)NC1=O [ANF83]
21 pM | 1.9e+07 pM | CC[C@H](C)[C@@H]1NC(=O)[C@H](CCCNC(=N)N)NC(=O)[C@H](CC(=O)O)NC(=O)[C@H]([C@@H](C)CC)NC(=O)[C@H](CO)NC(=O)CNC(=O)[C@H]([C@@H](C)O)NC(=O)[C@H](Cc2ccccc2)NC[C@@H](NC(=O)[C@H](CO)NC(=O)[C@H](CO)NC(=O)[C@H](CCCNC(=N)N)NC(=O)[C@H](CCCNC(=N)N)NC(=O)[C@H](CC(C)C)NC(=O)[C@@H](N)CO)CSSC[C@@H](C(=O)N[C@@H](CC(N)=O)C(=O)N[C@@H](CO)C(=O)N[C@@H](Cc2ccccc2)C(=O)N[C@@H](CCCNC(=N)N)C(=O)N[C@@H](Cc2ccc(O)cc2)C(=O)O)NC(=O)CNC(=O)[C@H](CC(C)C)NC(=O)CNC(=O)[C@H](CO)NC(=O)[C@H](CCC(N)=O)NC(=O)[C@H](C)NC(=O)[C@H](CCCNC(=N)N)NC1=O [ANF84]
1200 pM | 6.14e+06 pM | CC[C@H](C)[C@@H]1NC(=O)[C@H](CCCNC(=N)N)NC(=O)[C@H](CC(=O)O)NC(=O)[C@H]([C@@H](C)CC)NC(=O)[C@H](CC(=O)O)NC(=O)CNC(=O)[C@@H](C)NC(=O)[C@H](Cc2ccccc2)NC(=O)[C@@H](NC(=O)[C@H](CO)NC(=O)[C@H](CO)NC(=O)[C@H](CCCNC(=N)N)NC(=O)[C@H](CCCNC(=N)N)NC(=O)[C@H](CC(C)C)NC(=O)[C@@H](N)CO)CSSC[C@@H](C(=O)N[C@@H](CC(N)=O)C(=O)N[C@@H](CO)C(=O)N[C@@H](Cc2ccccc2)C(=O)N[C@@H](CCCNC(=N)N)C(=O)N[C@@H](Cc2ccc(O)cc2)C(=O)O)NC(=O)CNC(=O)[C@H](CC(C)C)NC(=O)CNC(=O)[C@H](CO)NC(=O)[C@H](CCC(N)=O)NC(=O)[C@H](C)NC(=O)[C@H](CCCNC(=N)N)NC1=O [ANF90] (H-SLRRSSCF[dA]GDIDRIRAQSGLGCNSFRY-OH; disulfide 7-23)

More lines, now with the values behind:

SMILES | IC50 (hNPR-A) | IC50 (hNPR-C)
CC[C@H](C)[C@@H]1NC(=O)[C@H](CCCNC(=N)N)NC(=O)[C@H](CC(=O)O)NC(=O)[C@H]([C@@H](C)CC)NC(=O)[C@H](CO)NC(=O)CNC(=O)[C@H]([C@@H](C)O)NC(=O)[C@H](Cc2ccccc2)NC(=O)[C@@H](CO)NC(=O)[C@@H](NC(=O)[C@H](CO)NC(=O)[C@H](CO)NC(=O)[C@H](CCCNC(=N)N)NC(=O)[C@H](CCCNC(=N)N)NC(=O)[C@H](CC(C)C)NC(=O)[C@@H](N)CO)CSSC[C@@H](C(=O)N[C@@H](CC(N)=O)C(=O)N[C@@H](CO)C(=O)N[C@@H](Cc2ccccc2)C(=O)N[C@@H](CCCNC(=N)N)C(=O)N[C@@H](Cc2ccc(O)cc2)C(=O)O)NC(=O)CNC(=O)[C@H](CC(C)C)NC(=O)CNC(=O)[C@H](CO)NC(=O)[C@H](CCC(N)=O)NC(=O)[C@H](C)NC(=O)[C@H](CCCNC(=N)N)NC1=O [ANF74] (H-SLRRSSC[dS]FTGSIDRIRAQSGLGCNSFRY-OH; disulfide 7-24) | 29400 pM | 1e+07 pM
CC[C@H](C)[C@@H]1NC(=O)[C@H](CCCNC(=N)N)NC(=O)[C@H](CC(=O)O)NC(=O)[C@H]([C@@H](C)CC)NC(=O)[C@H](CO)NC(=O)CNC(=O)[C@H]([C@@H](C)O)NC(=O)[C@H](Cc2ccccc2)NC(=O)[C@@H](C)NC(=O)[C@@H](NC(=O)[C@H](CO)NC(=O)[C@H](CO)NC(=O)[C@H](CCCNC(=N)N)NC(=O)[C@H](CCCNC(=N)N)NC(=O)[C@H](CC(C)C)NC(=O)[C@@H](N)CO)CSSC[C@@H](C(=O)N[C@@H](CC(N)=O)C(=O)N[C@@H](CO)C(=O)N[C@@H](Cc2ccccc2)C(=O)N[C@@H](CCCNC(=N)N)C(=O)N[C@@H](Cc2ccc(O)cc2)C(=O)O)NC(=O)CNC(=O)[C@H](CC(C)C)NC(=O)CNC(=O)[C@H](CO)NC(=O)[C@H](CCC(N)=O)NC(=O)[C@H](C)NC(=O)[C@H](CCCNC(=N)N)NC1=O [ANF75] (H-SLRRSSC[dA]FTGSIDRIRAQSGLGCNSFRY-OH; disulfide 7-24) | 2080 pM | 2e+06 pM
CC[C@H](C)[C@@H]1NC(=O)[C@H](CCCNC(=N)N)NC(=O)[C@H](CC(=O)O)NC(=O)[C@H]([C@@H](C)CC)NC(=O)[C@H](CO)NC(=O)CNC(=O)[C@H]([C@@H](C)O)NC(=O)[C@H](CC2CCCCC2)NC(=O)[C@@H](NC(=O)[C@H](CO)NC(=O)[C@H](CO)NC(=O)[C@H](CCCNC(=N)N)NC(=O)[C@H](CCCNC(=N)N)NC(=O)[C@H](CC(C)C)NC(=O)[C@@H](N)CO)CSSC[C@@H](C(=O)N[C@@H](CC(N)=O)C(=O)N[C@@H](CO)C(=O)N[C@@H](Cc2ccccc2)C(=O)N[C@@H](CCCNC(=N)N)C(=O)N[C@@H](Cc2ccc(O)cc2)C(=O)O)NC(=O)CNC(=O)[C@H](CC(C)C)NC(=O)CNC(=O)[C@H](CO)NC(=O)[C@H](CCC(N)=O)NC(=O)[C@H](C)NC(=O)[C@H](CCCNC(=N)N)NC1=O [ANF79] (H-SLRRSSC[Cha]TGSIDRIRAQSGLGCNSFRY-OH; disulfide 7-23) | 2.4 pM | 1.48e+06 pM
CC[C@H](C)[C@@H]1NC(=O)[C@H](CCCNC(=N)N)NC(=O)[C@H](CC(=O)O)NC(=O)[C@H]([C@@H](C)CC)NC(=O)[C@H](CO)NC(=O)CNC(=O)[C@@H]([C@H](C)O)NC(=O)[C@H](Cc2ccccc2)NC(=O)CCSSC[C@@H](C(=O)N[C@@H](CC(N)=O)C(=O)N[C@@H](CO)C(=O)N[C@@H](Cc2ccccc2)C(=O)N[C@@H](CCCNC(=N)N)C(=O)N[C@@H](Cc2ccc(O)cc2)C(=O)O)NC(=O)CNC(=O)[C@H](CC(C)C)NC(=O)CNC(=O)[C@H](CO)NC(=O)[C@H](CCC(N)=O)NC(=O)[C@H](C)NC(=O)[C@H](CCCNC(=N)N)NC1=O [ANF80] ([Mpa]F[dT]GSIDRIRAQSGLGCNSFRY-OH; disulfide 1-17) | 423 pM | 739000 pM
